# According to ChEMBL document CHEMBL1130361, “Homology modeling of the ampa receptor: A quantitative predictive tool for the design of novel antagonists” (Bioorg Med Chem Lett, 1997):
# Biological target: Glutamate receptor ionotropic AMPA (Homo sapiens, UniProt P42261+P42262+P42263+P48058)
# Description: Binding affinity against AMPA receptor using [3H]- AMPA radioligand
row,Compound,IC50
1,C[C@@]12CC[C@H](CS(=O)(=O)c3nc[nH]n3)C[C@]1(C)CC(C(=O)O)NC2 (some centres not stated),630 nM
2,CN1CCc2c([N+](=O)[O-])cc3[nH]c(=O)c(=O)[nH]c3c2C1,80 nM
3,C[C@@]12CC[C@H](CCc3nnn[nH]3)C[C@]1(C)CC(C(=O)O)NC2 (some centres not stated),1350 nM
4,CN1Cc2c(S(=O)(=O)N(C)C)cc3c(N=O)c(O)[nH]c3c2C1,700 nM
5,C[C@@]12CC[C@H](CSc3nn[nH]n3)C[C@]1(C)CC(C(=O)O)NC2 (some centres not stated),580 nM
6,O=C1Nc2c(ccc3c2CCCC3)/C1=N/O,7200 nM

# Results, then the molecule that gave them:
row,IC50,Compound
1,166 nM,CCN1CCc2c([N+](=O)[O-])cc3[nH]c(=O)c(=O)[nH]c3c2C1
2,153 nM,CC(C)N1CCc2c([N+](=O)[O-])cc3[nH]c(=O)c(=O)[nH]c3c2C1
3,44000 nM,COC(=O)c1cc2nc(O)c(O)nc2c2c1CN(C)CC2
4,2000 nM,O=[N+]([O-])c1ccc2nc(O)c(O)nc2c1
5,150 nM,CN1CCc2c(-c3ccc([N+](=O)[O-])cc3)cc3c(c2C1)NC(=O)/C3=N\O
6,24000 nM,Oc1nc2ccc3c(c2nc1O)CCCN3
